Among the test systems are HCT-116; MCF7; OVCAR-5; A498; HCC 2998; IGROV-1; HCT-15; OVCAR-4; UACC-62; LOX IMVI; SF-295; HL-60; HT-29; EKVX; UO-31; SF-539; NCI-H23; NCI-H226; SN12C; SNB-75.
Common to all, as to assay: NCI-60 cell line screen, 48 h

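Five concentrations, 48 hours, 96-well plates. Here, GI50 denotes the concentration required for 50% inhibition of growth.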 Calls of active or inactive are those of the source. No stated cut-off is given here; in the data, active = GI50 up to about 1.1 µM and inactive = higher.

For the molecule `CC(=O)NC(CCCCNC(=O)OC(C)(C)C)C(=O)O` (stereo unspecified), the GI50 in the assay with HCT-116 is > 100 µM (inactive); in the assay with MCF7 it was > 100 µM (inactive); in the assay with OVCAR-5, 38.1 µM (inactive); with A498 it was 26.1 µM (inactive); in the assay with HCC 2998 it was > 100 µM (inactive); with IGROV-1 it was > 100 µM (inactive). Also, the GI50 in the assay with HCT-15 is over 100 µM; in the assay on OVCAR-4, > 100 µM (inactive); in the assay with UACC-62, > 100 µM (inactive); in the assay on LOX IMVI, > 100 µM (inactive); in the assay on SF-295, > 100 µM (inactive); in the assay on HL-60, > 100 µM (inactive). In addition, the GI50 in the assay on HT-29, with EKVX and with UO-31 was > 100 µM (inactive) each time.

With `C=C1C(=O)O[C@@H]2/C=C(\C)CC/C=C(\C)CC[C@@]12O`, the GI50 was 2.42 µM (inactive) in the assay on HCT-116; 2.17 µM (inactive) with MCF7; 1.2 µM (inactive) in the assay on SF-539; 11.4 µM (inactive) with OVCAR-5; 9.12 µM (inactive) in the assay with A498; 5.31 µM (inactive) in the assay on HCC 2998. The GI50 is 3.52 µM (inactive) in the assay on IGROV-1; 1.67 µM (inactive) in the assay with NCI-H23; 2.82 µM in the assay on HCT-15; 1.98 µM (inactive) in the assay on OVCAR-4; 9.35 µM (inactive) in the assay with UACC-62; 1.9 µM (inactive) with LOX IMVI. For the same molecule, the GI50 in the assay with SF-295 was 10.9 µM (inactive); in the assay on NCI-H226, 13.8 µM (inactive); with HL-60 it was 0.771 µM (active); in the assay on SN12C, 2.44 µM (inactive); with HT-29, 2.99 µM (inactive); in the assay on EKVX, 4.13 µM (inactive). The GI50 with UO-31 was 1.48 µM (inactive).

In the case of `COc1ccc2c(c1)c1c(n2CCN2CCCCC2)-c2cccc(OC)c2CC1`, the GI50 was 24.7 µM (inactive) in the assay with HCT-116; 15.5 µM (inactive) with MCF7; 16.1 µM (inactive) with OVCAR-5; 20.1 µM (inactive) in the assay on A498; 15.5 µM (inactive) in the assay on HCC 2998; 13.4 µM (inactive) with IGROV-1. Moreover, the GI50 in the assay with NCI-H23 was 14.8 µM (inactive); in the assay on HCT-15, 8.99 µM; in the assay on OVCAR-4 it was 29.2 µM (inactive); in the assay on SNB-75, 18.5 µM (inactive); with UACC-62, 14.2 µM (inactive); in the assay on LOX IMVI it was 16.1 µM (inactive). Also, the GI50 is 30.5 µM (inactive) in the assay on SF-295; 10 µM (inactive) in the assay with NCI-H226; 14.9 µM (inactive) in the assay with SN12C; 4.58 µM (inactive) in the assay on HT-29; 19.6 µM (inactive) in the assay with EKVX; 10.4 µM (inactive) in the assay with UO-31.

Consider `Nc1nc(=O)[nH]cc1F` [FLUCYTOSINE], for which the GI50 in the assay with HCT-116, with MCF7, in the assay on SF-539, with OVCAR-5, in the assay with A498 and in the assay with HCC 2998 was > 100 µM (inactive) in each case. Besides, the GI50 in the assay on IGROV-1 was > 100 µM (inactive); in the assay on NCI-H23 it was > 100 µM (inactive); in the assay on HCT-15 it was over 100 µM; in the assay on OVCAR-4, > 100 µM (inactive); in the assay on UACC-62 it was > 100 µM (inactive); with LOX IMVI, > 100 µM (inactive). Further, the GI50 with SF-295, with NCI-H226, in the assay on HL-60, in the assay with SN12C, with HT-29 and in the assay with EKVX was > 100 µM (inactive) in each case. In the assay on UO-31, the GI50 was > 100 µM (inactive).

These data come from ChEMBL document CHEMBL1201862, “PubChem BioAssay data set” (2004).
